Data reported in article PMC9021288 (Nature Communications, 2022).
Several values for one entry are separate records, joined by “and”; a condition that tells them apart may be missing. Identical values can stand only once. Like-named read-outs stand apart in the source and are kept apart here.

Legend:
[1] = tested on: P. falciparum (NF54-HGL) stage V gametocytes fed to A. stephensi; assay: Transmission-blocking mosquito feeding assay (oocyst luminescence); format: cell-based, Plasmodium falciparum
Protocol: The transmission-blocking activity of compounds was determined as described previously. Briefly, NF54-HGL parasites were set up at 1% parasitemia in a semi-automated shaker system at 5% hematocrit. […] Eight days after the feed, luminescence was quantified to determine oocyst intensity.

[2] = tested on: P. falciparum field isolates from Uganda; assay: Ex vivo growth inhibition assay, Uganda field isolates; format: cell-based, Plasmodium falciparum; conditions: N = 230 isolates
Protocol: An ex vivo growth inhibition assay was performed on fresh clinical P. falciparum isolates in Uganda. […] Parasite density was quantified by fluorescence after incubation with SYBR Green lysis buffer measured on a BMG Fluostar Optima plate reader, as previously described.

[3] = tested on: control-cKD P. falciparum; assay: Drug sensitivity of control conditional knockdown parasites; format: cell-based, Plasmodium falciparum; conditions: 0 nM vs 500 nM aTc
Protocol: Replication assays were performed using a SYBR Green method as described previously. Briefly, asynchronous parasites were diluted to 0.83% parasitemia, 3% hematocrit in 30 µl medium, and added to 30 µl of diluted compounds in medium (0.1% DMSO final concentration) in black 384-wells plates. After a 72-h incubation, 30 µl of SYBR Green diluted in lysis buffer was added according to the manufacturer’s protocol (Life Technologies). Fluorescence intensity was measured on a BioTek Synergy 2 Plate Reader after 1-h incubation and was normalized to a DMSO control (100% growth) and DHA- or epoxomicin-treatment (no growth). […] Parasite survival was assessed by flow cytometry on an Accuri C6 (BD Biosciences) with BD C6 Plus software using SYBR Green and MitoTracker Deep Red FM (Life Technologies) as nuclear stain and vital dye, respectively, and data were analyzed using FlowJo (10.5.0). […] Luminescence was measured after 72 h using the Renilla-Glo(R) Luciferase Assay System (Promega E2750) and the GlomAX® Discover Multimode Microplate Reader (Promega). The luminescence values were normalized to DMSO vehicle (100% growth) and 200 nM chloroquine-treated (no growth) samples as controls.

CYP3A4 = assay: CYP induction (mRNA) in human hepatocytes; format: in vitro ADME; conditions: for CYP3A4 mean fold induction: per donor
Protocol: Positive control inducers (omeprazole for CYP1A2, phenobarbital for CYP2B6, and rifampicin for CYP3A4), were incubated alongside the test compound. For mRNA assessment, cells were lysed and resultant samples analyzed using an ABI 7900 HT real-time PCR system.

Renal excretion in dogs = format: in vivo, dog; conditions: for Concentration (ng/ml) in urine: dog urine, individual dogs 1-3
Protocol: (§1) A blood sample from the saphenous vein was collected into heparinized capillary tubes at multiple intervals between 0.25 and 24 h after dosing. Subsequently, samples were spun down at 1640 g for 5-10 min at 4 °C within 30 min after collection and plasma was collected. […] Urine was collected following an intravenous dose in both rat and dog, allowing renal clearance to be estimated. Human renal clearance was estimated from dog renal clearance as previously described[40] and other human PK parameters were predicted using allometric scaling and/or in vitro clearance data. PK parameters were calculated by naïve pooled approach using WinNonLin software (Phoenix, version 6.3).

[4] = Human PK prediction (allometry, in vitro clearance, GastroPlus)
Protocol: as §1

[5] = 8-day Dose Range Finding (DRF) rat study; format: in vivo, Wistar Han rats
Description: See the summary of the study design in Supplementary Table 31. Nine-week-old Wistar (Crl:WI (Han)) rats were obtained from Charles River Laboratories (Domaine des Oncins, Saint-Germain-Nuelles, France). […] Animals were examined daily for any altered clinical signs, body weights, and food consumption. Blood samples were taken at different timepoints after the test item administration, and toxicokinetic exposure assessed under the defined experimental conditions and analyzed using Phoenix (version 6.4 and 1.4) (Supplementary Table 32). Measurements included hematology and clinical chemistry measurements. Animals were euthanized and necropsied at the end of the dosing period. At necropsy, major organ systems and tissues were collected and weighed and then examined for gross lesions as well as for microscopic changes.

[6] = Plasma protein binding, mouse
[7] = Human hepatocyte clearance (relay assay); conditions: human, hepatocytes
Description: Briefly, cryopreserved human primary hepatocytes were thawed and cultured as described above.

Q: What does the source list for C[C@@H](CNC(=O)[C@H](O)C(C)(C)CO)NC(=O)c1cc(F)c(F)cc1F [MMV693183]?
A: midgut infection ([1]; 1 µM directly at the time of the mosquito feed): did not inhibit midgut infection; IC50 ([1]; gametocytes treated 24 h before feeding to A. stephensi, read-out: IC50 oocyst formation): 38 nM; IC50 ([2]; read-out: IC50 maximum): 11 nM; IC50 ([2]; read-out: IC50 minimum): 0.3 nM; IC50 change upon knockdown [3]: no difference in sensitivity; CYP3A4 mean fold induction (CYP3A4; 5 µM): 1.22 and 1.03 and 1.21; CYP3A4 mean fold induction (CYP3A4; 15 µM): 0.824 and 0.905 and 0.816; CYP3A4 mean fold induction (CYP3A4; 50 µM): 0.779 and 0.500 and 1.26; CYP3A4 mean fold induction (CYP3A4; 150 µM): 1.19 and 0.477 and 1.98; CYP3A4 mean fold induction (CYP3A4; 250 µM): 0.665 and 2.86; CYP3A4 mean fold induction (CYP3A4; 500 µM): 3.6 and 3.63 and 1.49 and 3.16; concentration at which CYP3A4 was induced (CYP3A4; 72 h, three donors): greater than 150 µM; Observed renal plasma clearance (Renal excretion in dogs; Dog): 1.0 mL/min/kg; Dose in urine (Renal excretion in dogs; Mean): 0.0332; Total in urine (Renal excretion in dogs; Mean): 384 µg; Concentration (ng/ml) in urine (Renal excretion in dogs; interval 0 to 4 h): 2790 ng/mL and 4550 ng/mL and 7660 ng/mL; Concentration (ng/ml) in urine (Renal excretion in dogs; interval 8 to 24 h): 6890 ng/mL and 3700 ng/mL; drug eliminated in urine (Renal excretion in dogs; dogs, i.v. 1 mg/kg, dog with 170 ml urine): 8.9%; Dose in urine (Renal excretion in dogs; i.v. 1 mg/kg, total per animal 1-3, 1 mg/kg): 0.002 and 0.089 and 0.009; Total in urine (Renal excretion in dogs; total 0-24 h per animal 1-3): 22.32 µg and 1030.9 µg and 98.8 µg; biopharmaceutical classification system class [4]: class I; estimated human total clearance ([4]; allometry with MLP correction): 1.8 mL/min/kg; CL, total ([4]; human predicted): 1.11 mL/min/kg; V1 ([4]; human predicted): 0.843 L/kg; V2 ([4]; human predicted): 1.97 L/kg; Vss ([4]; human predicted): 2.81 L/kg; half-life ([4]; human predicted): 32.4 h; CL, renal ([4]; human predicted from dog renal clearance): 0.60 mL/min/kg; CL, hepatic ([4]; human predicted from in vitro hepatocyte clearance): 0.51 mL/min/kg; allometric clearance exponent ([4]; simple allometry): 0.967; cumulative exposure vs predicted human efficacious exposure ([5]; 30 mg/kg/day group): > 30 fold; Liver weight ([5]; 10 and 30 mg/kg/day): Liver weight was unchanged; liver histology ([5]; 10 and 30 mg/kg/day): absence of liver microscopic findings; Liver weight ([5]; DRF 10 mg/kg/day, Females): 6.6517 g; Liver weight ([5]; DRF 10 mg/kg/day, Males): 9.7817 g; Liver weight ([5]; DRF 30 mg/kg/day, Females (two groups)): 6.4437 g and 7.2357 g; Liver weight ([5]; DRF 30 mg/kg/day, Males (two groups)): 10.7203 g and 9.7543 g; Liver weight ([5]; DRF study, females, 10 mg/kg/day, individual animals): 6.951 g and 7.042 g and 5.962 g; Liver weight ([5]; DRF study, females, 30 mg/kg/day (first column headed 30), individual animals, 30 mg/kg/day): 7.24 g and 5.849 g and 6.242 g; Liver weight ([5]; DRF study, females, 30 mg/kg/day (second column headed 30), individual animals, 30 mg/kg/day): 7.466 g and 7.43 g and 6.811 g; Liver weight ([5]; DRF study, males, 10 mg/kg/day, individual animals): 9.171 g and 9.562 g and 10.612 g; Liver weight ([5]; DRF study, males, 30 mg/kg/day (first column headed 30), individual animals, 30 mg/kg/day): 10.621 g and 11.894 g and 9.646 g; Liver weight ([5]; DRF study, males, 30 mg/kg/day (second column headed 30), individual animals, 30 mg/kg/day): 10.364 g and 10.082 g and 8.817 g; NOEL ([5]; eight days): 30 mg/kg/day; decrease in systemic exposure day 7 vs day 1 ([5]; predominantly males at 30 mg/kg/day): up to 4 fold; plasma protein binding [6]: 33%

Q: For C[C@@H](CNC(=O)[C@H](O)C(C)(C)CO)NC(=O)c1cc(C#N)ccc1F [MMV693182], which hepatocyte CLint [7] is on record?
A: Its hepatocyte CLint is 0.2 µL/min/1e6 cells.
